Assay results: patent US10953012B2, “Heterocyclic compounds for the inhibition of pask” (BioEnergenix LLC, priority 2011, dated 2021)

The molecules below were run against PASK (Homo sapiens (Human), UniProt Q96RG2) (assay: PAS Kinase FRET Assay). Conditions: TR-FRET assay; read-out: IC50 Kinase Domain.
Assay type: biochemical
Excerpt: The aim of the FRET assay is to determine the inhibition potential of test compounds on targeted kinase. This assay platform provides a homogenous screening method for measuring kinase activity by quantitating the amount of phospho-substrate in solution following a kinase reaction.
In the presence of kinase and ATP, the Ulight-peptide is phosphorylated and captured by an anti-phospho-substrate antibody, which brings the Eu chelate donor and Ulight acceptor dyes into close proximity. Upon excitation at 340 nm, the Eu chelate transfers its energy to the Ulight dye, resulting in a fluorescent light emission at 665 nm
Titration of kinase at 1 mM ATP was achieved via the following protocol. After making serial three-fold dilutions of PASK (Invitrogen) in reaction buffer across the plate; 5 μl of kinase dilution and 5 μl substrate/ATP mix were added to the wells of the white Optiplate-384 (PerkinElmer). The contents of the plate were and incubated at RT for 1 h. The reaction was stopped by adding 5 μl of stop solution to each test well followed by mixing and incubation at RT for 10 minutes. 5 μl of detection mix (detection antibody diluted in detection buffer) was added; the contents of the plate were mixed and then incubated in the dark for 1 hour at RT. The signal was recorded at TR-FRET mode (665 nm/615 nm). The results were graphed to calculate the EC50.
Titration of ATP at the EC50 concentration of kinase to determine ATP Km, app. was performed using the following method. After making serial dilutions of ATP (Invitrogen), 5 μl of ATP dilution and 5 μl substrate/kinase mix were added to the wells of the white Optiplate-384 (PerkinElmer). The contents of the plate were and incubated at RT for 1 h. The reaction was stopped by adding 5 μl of stop solution to each test well followed by mixing and incubation at RT for 10 minutes. 5 μl of detection mix (detection antibody diluted in detection buffer) was added; the contents of the plate were mixed and then incubated in the dark for 1 hour at RT. The signal was recorded at TR-FRET mode (665 nm/615 nm). The results were graphed to calculate the EC50 as the ATP Km, app.
Compound screening was done via the following method. 10 mM stock solution of test compound in DMSO was prepared by dissolving test compound in DMSO at RT for 1 hour, and then sonicating at 100% output for 8 minutes. If compound is not soluble under this condition, it was diluted to 3 mM. Kinase reaction buffer was prepared containing 10 mM MgCl2, 50 mM HEPES, 1 mM EGTA, 0.01% TWEEN-20, 2 mM DTT. Serial dilutions of the test compounds were prepared at 4×final assay concentrations using Freedom EVO200® dispensing system as follows: 12×10^−5 M, 4×10^−5 M, 1.33×10^−5 M, 4.44×10^−6 M, 1.48×10^−6 M, 4.92×10^−7 M, 1.65×10^−7 M, […], 1.82×10^−8M, 6.09×10^−9, 2.03×10^−9 M. Test compounds (2.5 μl at 4× the final assay concentration) was added to wells using Freedom EVO200® dispensing system. As a positive control, 2.5 μl of positive compound was added to assay wells, and 2.5 μl of DMSO to assay wells as vehicle control. Kinase solution was prepared in reaction buffer at 2×final assay concentration. Kinase solution (5 μl) was added to each well of the assay plate. The substrate and ATP solution was prepared in kinase reaction buffer at 4×final assay concentration. The kinase reaction was started by adding 2.5 μl of substrate+ATP mix solution to each well of the assay plate. The plate is mixed on a plate shaker; then covered and allowed to react for 2 hours in the dark at 25° C. without shaking. The reaction was stopped by adding 5 μl of stop solution to each test well followed by mixing and incubation at RT for 10 minutes in the dark. 5 μl of detection mix (detection antibody diluted in detection buffer) was added; the contents of the plate were mixed and then incubated in the dark for 1 hour at RT. The signal was recorded at TR-FRET mode (665 nm/615 nm).

Sequence of PASK (Q96RG2 999-1251): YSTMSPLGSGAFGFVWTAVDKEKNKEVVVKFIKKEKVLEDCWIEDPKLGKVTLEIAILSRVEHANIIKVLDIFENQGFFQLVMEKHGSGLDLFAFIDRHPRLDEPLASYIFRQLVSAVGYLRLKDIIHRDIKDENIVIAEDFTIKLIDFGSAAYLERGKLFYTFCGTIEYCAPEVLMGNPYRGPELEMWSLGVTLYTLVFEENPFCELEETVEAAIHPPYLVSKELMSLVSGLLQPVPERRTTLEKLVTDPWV

Structure (SMILES) | IC50
CC(=O)Nc1nn2c(=O)cc(-c3ccc4[nH]ncc4c3)[nH]c2c1-c1ccccn1 [Example 182, N-(5-(1H-Indazol-5-yl)-7-oxo-3-(pyridin-2-yl)-4,7-dihydropyrazolo[1,5-a]pyrimidin-2-yl)acetamide] | ≤ 10 µM
CCc1nn2c(=O)cc(-c3ccc4[nH]ncc4c3)[nH]c2c1-c1ccccn1 [Example 183, 2-Ethyl-5-(1H-indazol-5-yl)-3-(pyridin-2-yl)pyrazolo[1,5-a]pyrimidin-7(4H)-one] | ≤ 10 µM
Cn1ncc2cc(-c3cc(=O)n4nc(N)c(-c5ccccn5)c4[nH]3)ccc21 [Example 184, 2-Amino-5-(1-methyl-1H-indazol-5-yl)-3-(pyridin-2-yl)pyrazolo[1,5-a]pyrimidin-7(4H)-one] | ≤ 10 µM
Cc1nn2c(=O)cc(-c3ccc4[nH]nnc4c3)[nH]c2c1Cc1ccccc1 [Example 185, 5-(1H-Benzo[d][1,2,3]triazol-5-yl)-3-benzyl-2-methylpyrazolo[1,5-a]pyrimidin-7(4H)-one] | ≤ 10 µM
Cn1ncc2cc(-c3cc(=O)n4ncc(-c5ccccn5)c4[nH]3)ccc21 [Example 186, 5-(1-Methyl-1H-indazol-5-yl)-3-(pyridin-2-yl)pyrazolo[1,5-a]pyrimidin-7(4H)-one] | ≤ 10 µM
O=c1cc(-c2ccc3[nH]ncc3c2)[nH]c2c(-c3ccccn3)c(O)nn12 [Example 187, 2-Hydroxy-5-(1H-indazol-5-yl)-3-(pyridin-2-yl)pyrazolo[1,5-a]pyrimidin-7(4H)-one] | ≤ 10 µM
Cc1n[nH]c2ccc(-c3cc(=O)n4nc(N)c(-c5ccccn5)c4[nH]3)cc12 [Example 188, 2-Amino-5-(3-methyl-1H-indazol-5-yl)-3-(pyridin-2-yl)pyrazolo[1,5-a]pyrimidin-7(4H)-one] | ≤ 10 µM
Cc1n[nH]c2ccc(-c3cc(=O)n4ncc(-c5ccccn5)c4[nH]3)cc12 [Example 189, 5-(3-Methyl-1H-indazol-5-yl)-3-(pyridin-2-yl)pyrazolo[1,5-a]pyrimidin-7(4H)-one] | ≤ 10 µM
CCc1nn2c(=O)cc(-c3ccc(Cl)cc3)[nH]c2c1-c1ccccn1 [Example 190, 5-(4-Chlorophenyl)-2-ethyl-3-(pyridin-2-yl)pyrazolo[1,5-a]pyrimidin-7(4H)-one] | ≤ 10 µM
O=c1cc(-c2ccc3[nH]nnc3c2)[nH]c2c(-c3ccccn3)cnn12 [Example 192, 5-(1H-Benzo[d][1,2,3]triazol-5-yl)-3-(pyridin-2-yl)pyrazolo[1,5-a]pyrimidin-7(4H)-one] | ≤ 10 µM
Cn1nnc2cc(-c3cc(=O)n4nc(N)c(-c5ccccn5)c4[nH]3)ccc21 [Example 194, 2-Amino-5-(1-methyl-1H-benzo[d][1,2,3]triazol-5-yl)-3-(pyridin-2-yl)pyrazolo[1,5-a]pyrimidin-7(4H)-one] | ≤ 10 µM
Cn1nnc2cc(-c3cc(=O)n4ncc(-c5ccccn5)c4[nH]3)ccc21 [Example 195, 5-(1-Methyl-1H-benzo[d][1,2,3]triazol-5-yl)-3-(pyridin-2-yl)pyrazolo[1,5-a]pyrimidin-7(4H)-one] | ≤ 10 µM
CCc1nn2c(=O)cc(-c3ccc4c(cnn4C)c3)[nH]c2c1-c1ccccn1 [Example 196, 2-Ethyl-5-(1-methyl-1H-indazol-5-yl)-3-(pyridin-2-yl)pyrazolo[1,5-a]pyrimidin-7(4H)-one] | ≤ 10 µM
Cc1nn2c(=O)cc(-c3ccc4[nH]nnc4c3)[nH]c2c1-c1ccccn1 [Example 200, 5-(1H-Benzo[d][1,2,3]triazol-5-yl)-2-methyl-3-(pyridin-2-yl)pyrazolo[1,5-a]pyrimidin-7(4H)-one] | ≤ 10 µM
CC(=O)Nc1nn2c(=O)cc(-c3ccc4[nH]nnc4c3)[nH]c2c1-c1ccccn1 [Example 202, N-(5-(1H-Benzo[d][1,2,3]triazol-5-yl)-7-oxo-3-(pyridin-2-yl)-4,7-dihydropyrazolo[1,5-a]pyrimidin-2-yl)acetamide] | ≤ 10 µM
CCC(=O)Nc1nn2c(=O)cc(-c3ccc4nn[nH]c4c3)[nH]c2c1-c1ccccn1 [Example 203, N-(5-(1H-Benzo[d][1,2,3]triazol-6-yl)-7-oxo-3-(pyridin-2-yl)-4,7-dihydropyrazolo[1,5-a]pyrimidin-2-yl)propionamide] | ≤ 10 µM
CCn1ncc2cc(-c3cc(=O)n4nc(NC(C)=O)c(-c5ccccn5)c4[nH]3)ccc21 [Example 204, N-(5-(1-Ethyl-1H-indazol-5-yl)-7-oxo-3-(pyridin-2-yl)-4,7-dihydropyrazolo[1,5-a]pyrimidin-2-yl)acetamide] | ≤ 10 µM

The next lines start with the values.

IC50 | Structure (SMILES)
≤ 10 µM | Cc1cc2cc(-c3cc(=O)n4ncc(-c5ccccn5)c4[nH]3)ccc2o1 [Example 169, 5-(2-Methylbenzofuran-5-yl)-3-(pyridin-2-yl)pyrazolo[1,5-a]pyrimidin-7(4H)-one]
≤ 10 µM | Cc1cc2cc(-c3cc(=O)n4nc(N)c(-c5ccccn5)c4[nH]3)ccc2o1 [Example 170, 2-Amino-5-(2-methylbenzofuran-5-yl)-3-(pyridin-2-yl)pyrazolo[1,5-a]pyrimidin-7(4H)-one]
≤ 10 µM | Nc1nn2c(=O)cc(-c3ccc(C(F)(F)F)cc3)[nH]c2c1-c1ccccn1 [Example 172, 2-amino-3-(pyridin-2-yl)-5-(4-(trifluoromethyl)phenyl)pyrazolo[1,5-a]pyrimidin-7(411)-one]
≤ 10 µM | O=c1cc(-c2ccc(C(F)(F)F)cc2)[nH]c2c(-c3ccccn3)cnn12 [Example 173, 3-(Pyridin-2-yl)-5-(4-(trifluoromethyl)phenyl)pyrazolo[1,5-a]pyrimidin-7(4H)-one]
≤ 10 µM | Nc1nn2c(=O)cc(-c3cccc(F)c3)[nH]c2c1-c1ccccn1 [Example 174, 2-Amino-5-(3-fluorophenyl)-3-(pyridin-2-yl)pyrazolo[1,5-a]pyrimidin-7(4H)-one]
≤ 10 µM | O=c1cc(-c2cccc(F)c2)[nH]c2c(-c3ccccn3)cnn12 [Example 175, 5-(3-Fluorophenyl)-3-(pyridin-2-yl)pyrazolo[1,5-a]pyrimidin-7(4H)-one]
≤ 10 µM | Nc1nn2c(=O)cc(-c3ccc(F)cc3F)[nH]c2c1-c1ccccn1 [Example 176, 2-Amino-5-(2,4-difluorophenyl)-3-(pyridin-2-yl)pyrazolo[1,5-a]pyrimidin-7(4H)-one]
≤ 10 µM | O=c1cc(-c2ccc(F)cc2F)[nH]c2c(-c3ccccn3)cnn12 [Example 177, 5-(2,4-Difluorophenyl)-3-(pyridin-2-yl)pyrazolo[1,5-a]pyrimidin-7(4H)-one]
≤ 10 µM | CCCNC(=O)c1c(N)nn2c(=O)cc(-c3ccc4c(c3)OCO4)[nH]c12 [Example 178, 2-Amino-5-(benzo[d][1,3]dioxol-5-yl)-7-oxo-N-propyl-4,7-dihydropyrazolo[1,5-a]pyrimidine-3-carboxamide]
≤ 10 µM | CCC(=O)Nc1nn2c(=O)cc(-c3ccc4c(c3)OCO4)[nH]c2c1-c1ccccn1 [Example 180, N-(5-(Benzo[d][1,3]dioxol-5-yl)-7-oxo-3-(pyridin-2-yl)-4,7-dihydropyrazolo[1,5-a]pyrimidin-2-yl)propionamide]
≤ 10 µM | CC(C)C(=O)Nc1nn2c(=O)cc(-c3ccc4c(c3)OCO4)[nH]c2c1-c1ccccn1 [Example 181, N-(5-(Benzo[d][1,3]dioxol-5-yl)-7-oxo-3-(pyridin-2-yl)-4,7-dihydropyrazolo[1,5-a]pyrimidin-2-yl)isobutyramide]
